Reference: US8546427B2, “Tetrahydroquinoline derivatives” (Hoffmann-La Roche Inc., priority 2010, dated 2013)

The compounds below were run on AMP-activated protein kinase (AMPK) (assay: ADP Quest assay for AMPK activators). Settings: fold of AMPK activation to phosphorylate SAMS peptide without and with an activator at the concentration of 30 μM.
Assay type: biochemical
Design: key: fold AMPK activation at 30 μM activator vs none
Procedure: This method evaluates AMP-activated protein kinase (AMPK) activity through detecting the accumulation of ADP product using an ADP Quest kit and determining the E30 values of the small molecular AMPK activators. ADP Quest kit (DiscoveRx, Fremont, Calif.) is stored at −20° C. before use. Before an experiment, thaw the kit (include assay buffer, ADP standard solution, reagent A and reagent B) and equilibrate to room temperature. Dispense the ADP Quest reagents into single-use aliquots and store at −20° C. The compound concentrations typically range from 0 μM to 100 μM by 2-fold dilution. AMP concentrations range from 0.98 μM to 1 mM as the reference control. In an assay, thaw and equilibrate the assay buffer, reagent A and reagent B to room temperature for 30 minutes prior to use. Mix ATP, SAMS peptide substrate and compound, and place them into the 384-well assay plate. Add reagent A and B based on the assay kit protocol. Incubate the assay plate at room temperature for 30 minutes after addition the mixture followed by the addition of AMPK protein (Invitrogen, CA) to initiate the AMPK phosphorylation reaction. At the same time, reactions with AMPK activator AMP in the absence of enzyme is included as blank control. The reaction fluorescence signal is monitored and recorded on Envision in kinetic mode with the excitation wavelength of 530 nm and emission wavelength of 590 nm. The E30 value, defined as the fold of AMPK activation to phosphorylate SAMS peptide without and with an activator at the concentration of 30 μM, is calculated and analyzed using Prism 5.0.
In the case of `CC(C)(Nc1cccc(C2CC(C)(C)c3cc(Cl)ccc3N2)c1)C(=O)O` (centres unmarked) [Example 1, 2-[3-(6-Chloro-4,4-dimethyl-1,2,3,4-tetrahydro-quinolin-2-yl)-phenylamino]-2-methyl-propionic acid], the E30 was 3.30.
`CC1(C)CC(c2cccc(NC3(C(=O)O)CC3)c2)Nc2ccc(Cl)cc21` (centres unmarked) [Example-2, 1-[3-(6-Chloro-4,4-dimethyl-1,2,3,4-tetrahydro-quinolin-2-yl)-phenylamino]-cyclopropanecarboxylic acid] showed an E30 of 2.63.
`CC(C)(Nc1cccc(C2CC(C)(C)c3cc(C#N)ccc3N2)c1)C(=O)O` (centres unmarked) [Example-3, 2-[3-(6-Cyano-4,4-dimethyl-1,2,3,4-tetrahydro-quinolin-2-yl)-phenylamino]-2-methyl-propionic acid] gave an E30 of 2.88.
Compound `CC1(C)CC(c2cccc(NC3(C(=O)O)CC3)c2)Nc2ccc(C#N)cc21` (centres unmarked) [Example-4, 1-[3-(6-Cyano-4,4-dimethyl-1,2,3,4-tetrahydro-quinolin-2-yl)-phenylamino]-cyclopropanecarboxylic acid] has an E30 of 2.43.
With `CC1(C)CC(c2cccc(NC3(C(=O)O)CC3)c2)Nc2c(C(=O)O)cccc21` (centres unmarked) [Example-5, 2-[3-(1-Carboxy-cyclopropylamino)-phenyl]-4,4-dimethyl-1,2,3,4-tetrahydro-quinoline-8-carboxylic acid] the E30 was 2.44.
`CC1(C)CC(c2cccc(NC3(C(=O)O)CC3)c2)Nc2c(C(=O)O)cc(Cl)cc21` (centres unmarked) [Example-6, 2-[3-(1-Carboxy-cyclopropylamino)-phenyl]-6-chloro-4,4-dimethyl-1,2,3,4-tetrahydro-quinoline-8-carboxylic acid] gave an E30 of 2.72.
Compound `CC(C)(Nc1cccc(C2CC(C)(C)c3cc(Cl)cc(C(=O)O)c3N2)c1)C(=O)O` (centres unmarked) [Example-7, 2-[3-(1-Carboxy-1-methyl-ethylamino)-phenyl]-6-chloro-4,4-dimethyl-1,2,3,4-tetrahydro-quinoline-8-carboxylic acid] has an E30 of 2.27.
`Cc1cc(C#N)cc2c1NC(c1cccc(NC3(C(=O)O)CC3)c1)CC2(C)C` (centres unmarked) [Example-8, 1-[3-(6-Cyano-4,4,8-trimethyl-1,2,3,4-tetrahydro-quinolin-2-yl)-phenylamino]-cyclopropanecarboxylic acid] gave an E30 of 1.68.
`CC(C)(Nc1cccc(C2CC(C)(C)c3cc(C(F)(F)F)ccc3N2)c1)C(=O)O` (centres unmarked) [Example-9, 2-[3-(4,4-Dimethyl-6-trifluoromethyl-1,2,3,4-tetrahydro-quinolin-2-yl)-phenylamino]-2-methyl-propionic acid] was tested, and the E30 was 2.34.
Work on `CC1(C)CC(c2ccccc2NS(C)(=O)=O)Nc2ccc(Cl)cc21` (centres unmarked) [Example-10, N-[2-(6-Chloro-4,4-dimethyl-1,2,3,4-tetrahydro-quinolin-2-yl)-phenyl]-methanesulfonamide] yielded an E30 of 1.70.
For `CN1c2ccc(C(F)(F)F)cc2C(C)(C)CC1c1cccc(NC(C)(C)C(=O)O)c1` (centres unmarked) [Example-11, 2-Methyl-2-[3-(1,4,4-trimethyl-6-trifluoromethyl-1,2,3,4-tetrahydro-quinolin-2-yl)-phenylamino]-propionic acid], the E30 was 2.48.
`Cc1cc(C#N)cc2c1NC(c1cccc(NC(C)(C)C(=O)O)c1)CC2(C)C` (centres unmarked) [Example-12, 2-[3-(6-Cyano-4,4,8-trimethyl-1,2,3,4-tetrahydro-quinolin-2-yl)-phenylamino]-2-methyl-propionic acid] showed an E30 of 2.37.
With `CN1c2ccc(C(F)(F)F)cc2C(C)(C)CC1c1cccc(NC2(C(=O)O)CC2)c1` (centres unmarked) [Example-13, 1-[3-(1,4,4-Trimethyl-6-trifluoromethyl-1,2,3,4-tetrahydro-quinolin-2-yl)-phenylamino]-cyclopropanecarboxylic acid] the E30 was 2.08.
Compound `CC1(C)CC(c2ccccc2NS(=O)(=O)c2cccc(F)c2)Nc2ccc(Cl)cc21` (centres unmarked) [Example-14, N-[2-(6-Chloro-4,4-dimethyl-1,2,3,4-tetrahydro-quinolin-2-yl)-phenyl]-3-fluoro-benzenesulfonamide] has an E30 of 1.78.
